{"source": "patent US20260092070A1", "about": "“INHIBITORS OF CANINE JANUS KINASE AND USES THEREOF” (ANIMOL DISCOVERY, INC., priority 2023, published 2026)", "key": {"[1]": {"molecular_target": "Human JAK-2 (Homo sapiens, UniProt O60674)", "sequence (O60674 whole entry)": "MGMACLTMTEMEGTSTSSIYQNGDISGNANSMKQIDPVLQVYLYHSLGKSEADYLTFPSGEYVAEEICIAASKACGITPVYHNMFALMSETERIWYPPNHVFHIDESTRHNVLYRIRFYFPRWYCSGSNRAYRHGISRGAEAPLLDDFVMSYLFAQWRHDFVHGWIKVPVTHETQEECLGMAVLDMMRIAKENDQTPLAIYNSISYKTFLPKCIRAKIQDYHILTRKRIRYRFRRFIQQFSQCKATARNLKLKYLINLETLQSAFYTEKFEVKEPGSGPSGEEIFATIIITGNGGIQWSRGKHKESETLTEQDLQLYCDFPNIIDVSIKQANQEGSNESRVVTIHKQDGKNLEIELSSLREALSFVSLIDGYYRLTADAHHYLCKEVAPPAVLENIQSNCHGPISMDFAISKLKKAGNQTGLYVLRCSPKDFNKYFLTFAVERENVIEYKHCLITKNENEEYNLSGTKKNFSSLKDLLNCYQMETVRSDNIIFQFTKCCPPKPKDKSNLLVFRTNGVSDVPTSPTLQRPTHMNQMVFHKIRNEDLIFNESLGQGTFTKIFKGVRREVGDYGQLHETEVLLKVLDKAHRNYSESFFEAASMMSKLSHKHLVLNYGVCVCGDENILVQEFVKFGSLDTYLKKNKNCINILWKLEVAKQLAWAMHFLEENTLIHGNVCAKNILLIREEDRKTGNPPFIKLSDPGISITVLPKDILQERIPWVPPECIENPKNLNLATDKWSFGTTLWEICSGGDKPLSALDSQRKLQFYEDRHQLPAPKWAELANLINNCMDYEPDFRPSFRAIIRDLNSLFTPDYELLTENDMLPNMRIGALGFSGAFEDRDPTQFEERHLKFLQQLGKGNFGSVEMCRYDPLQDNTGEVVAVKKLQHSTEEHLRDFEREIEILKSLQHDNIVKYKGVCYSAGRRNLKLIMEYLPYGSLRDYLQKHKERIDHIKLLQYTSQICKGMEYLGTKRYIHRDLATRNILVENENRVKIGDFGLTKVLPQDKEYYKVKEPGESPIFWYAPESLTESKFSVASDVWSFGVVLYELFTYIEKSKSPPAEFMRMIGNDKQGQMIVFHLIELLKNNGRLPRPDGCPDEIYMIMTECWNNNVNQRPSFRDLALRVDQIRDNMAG", "assay": "JAK enzymatic assay (Eurofins KinaseProfiler/IC50Profiler, radiometric), JAK-2", "type": "biochemical", "conditions": "human JAK-2 enzyme, 9 concentrations; read-out: JAK2 affinity (IC50) category", "procedure": "(§1) All enzyme assays were conducted according to Eurofins Discovery's KinaseProfiler™ and IC50Profiler™ services.\n(SEQ ID NO: 2) peptide substrate, 10 mM magnesium acetate and [gamma-33P]-ATP (specific activity and concentration as required). The reaction was initiated by the addition of the Mg/ATP mix. After incubation for 40 minutes at room temperature, the reaction was stopped by the addition of phosphoric acid to a concentration of 0.5%. An aliquot of the reaction was then spotted onto a filter and washed four times for 4 minutes in 0.425% phosphoric acid and once with methanol prior to drying and scintillation counting.\nData was then imported into an internal application where each data point was expressed as % inhibition based on uninhibited and no enzyme controls."}, "[2]": {"molecular_target": "JAK-1 (Homo sapiens, UniProt P23458)", "sequence (P23458 whole entry)": "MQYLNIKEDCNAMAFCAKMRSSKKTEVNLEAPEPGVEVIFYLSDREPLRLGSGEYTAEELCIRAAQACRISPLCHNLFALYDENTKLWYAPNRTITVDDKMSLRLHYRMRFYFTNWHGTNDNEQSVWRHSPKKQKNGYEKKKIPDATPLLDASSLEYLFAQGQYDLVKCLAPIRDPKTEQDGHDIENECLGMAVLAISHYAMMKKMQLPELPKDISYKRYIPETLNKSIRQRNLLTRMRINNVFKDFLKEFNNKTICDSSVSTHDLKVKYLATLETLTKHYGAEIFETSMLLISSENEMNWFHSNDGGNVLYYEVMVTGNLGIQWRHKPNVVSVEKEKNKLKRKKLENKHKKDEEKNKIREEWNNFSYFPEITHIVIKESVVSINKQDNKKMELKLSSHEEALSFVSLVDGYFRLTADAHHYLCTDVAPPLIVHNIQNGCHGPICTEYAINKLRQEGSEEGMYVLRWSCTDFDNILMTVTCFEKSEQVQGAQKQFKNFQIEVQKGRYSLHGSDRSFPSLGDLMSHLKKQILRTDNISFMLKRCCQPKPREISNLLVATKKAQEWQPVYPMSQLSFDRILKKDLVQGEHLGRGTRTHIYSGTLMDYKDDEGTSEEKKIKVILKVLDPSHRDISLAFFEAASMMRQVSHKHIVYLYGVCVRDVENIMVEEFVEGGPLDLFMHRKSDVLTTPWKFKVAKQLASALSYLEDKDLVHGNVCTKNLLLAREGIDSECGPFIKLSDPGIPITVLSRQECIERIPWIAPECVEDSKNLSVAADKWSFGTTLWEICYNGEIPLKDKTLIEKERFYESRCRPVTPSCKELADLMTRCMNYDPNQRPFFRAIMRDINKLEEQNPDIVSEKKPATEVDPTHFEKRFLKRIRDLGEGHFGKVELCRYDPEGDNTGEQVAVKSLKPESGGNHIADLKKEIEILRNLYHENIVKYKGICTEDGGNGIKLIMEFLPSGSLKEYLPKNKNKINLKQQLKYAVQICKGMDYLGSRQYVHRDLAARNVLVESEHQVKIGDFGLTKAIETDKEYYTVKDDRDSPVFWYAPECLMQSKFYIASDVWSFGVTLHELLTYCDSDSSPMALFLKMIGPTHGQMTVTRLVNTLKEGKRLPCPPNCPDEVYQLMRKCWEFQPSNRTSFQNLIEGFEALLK", "assay": "JAK enzymatic assay (Eurofins KinaseProfiler/IC50Profiler, radiometric), JAK-1", "conditions": "for JAK1/JAK2 selectivity: selectivity IC50 ratio for JAK1 versus JAK2, human enzymes", "procedure": "as §1\n(SEQ ID NO.: 1) peptide substrate, 10 mM magnesium acetate and [gamma-33P]-ATP (specific activity and concentration as required). The reaction was initiated by the addition of the Mg/ATP mix. After incubation for 40 minutes at room temperature, the reaction was stopped by the addition of phosphoric acid to a concentration of 0.5%. An aliquot of the reaction was then spotted onto a filter and washed four times for 4 minutes in 0.425% phosphoric acid and once with methanol prior to drying and scintillation counting. A known inhibitor, Staurosporine, was used as a positive control for the assay.\nData was then imported into an internal application where each data point was expressed as % inhibition based on uninhibited and no enzyme controls. […] Inhibition values for the JAK enzymes (IC50 values) for each compound were stratified into four groups."}}, "data": [{"smiles": "CCN(CC)S(=O)(=O)c1ccc(NC(=O)CN2CCN(c3ncnc4[nH]ccc34)CC2)cc1", "note": "[Compound 15, 2-(4-(7H-pyrrolo[2,3-d]pyrimidin-4-yl)piperazin-1-yl)-N-(4-(N,N-diethylsulfamoyl)phenyl)acetamide]", "values": [{"measurement": "IC50", "setting": "[1]", "result": "> 1000", "unit": "nM"}, {"measurement": "IC50", "setting": "[2]", "result": "250 to 500", "unit": "nM"}, {"measurement": "JAK1/JAK2 selectivity", "setting": "[2]", "result": 9}]}, {"smiles": "O=C(Nc1ccccc1)C1CCN(C(=O)CN2CCN(c3ncnc4[nH]ccc34)CC2)CC1", "note": "[Compound 16, 1-(2-(4-(7H-pyrrolo[2,3-d]pyrimidin-4-yl)piperazin-1-yl)acetyl)-N-phenylpiperidine-4-carboxamide]", "values": [{"measurement": "IC50", "setting": "[1]", "result": "> 1000", "unit": "nM"}, {"measurement": "IC50", "setting": "[2]", "result": "250 to 500", "unit": "nM"}, {"measurement": "JAK1/JAK2 selectivity", "setting": "[2]", "result": 19}]}, {"smiles": "CC1CCCN(C(=O)C2CCN(C(=O)CN3CCN(c4nc[nH]c5nccc4-5)CC3)CC2)C1", "note": "(stereo not shown) [Compound 23, 1-[4-(3-methylpiperidine-1-carbonyl)piperidin-1-yl]-2-(4-[1H-pyrrolo[2,3-d]pyrimidin-4-yl]piperazin-1-yl)ethan-1-one]", "values": [{"measurement": "IC50", "setting": "[1]", "result": "> 1000", "unit": "nM"}, {"measurement": "IC50", "setting": "[2]", "result": "> 1000", "unit": "nM"}]}, {"smiles": "CC(C)N(C)C(=O)C1CCN(C(=O)CN2CCN(c3nc[nH]c4nccc3-4)CC2)CC1", "note": "[Compound 24, N-methyl-N-(propan-2-yl)-1-[2-(4-{1H-pyrrolo[2,3-d]pyrimidin-4-yl}piperazin-1-yl)acetyl]piperidine-4-carboxamide]", "values": [{"measurement": "IC50", "setting": "[1]", "result": "> 1000", "unit": "nM"}, {"measurement": "IC50", "setting": "[2]", "result": "> 1000", "unit": "nM"}]}, {"smiles": "O=C(CN1CCN(c2nc[nH]c3nccc2-3)CC1)Nc1ccc(S(=O)(=O)Nc2ncccn2)cc1", "note": "[Compound 25, N-{4-[(pyrimidin-2-yl)sulfamoyl]phenyl}-2-(4-{1H-pyrrolo[2,3-d]pyrimidin-4-yl}piperazin-1-yl)acetamide]", "values": [{"measurement": "IC50", "setting": "[1]", "result": "< 250", "unit": "nM"}, {"measurement": "IC50", "setting": "[2]", "result": "< 250", "unit": "nM"}, {"measurement": "JAK1/JAK2 selectivity", "setting": "[2]", "result": 1}]}, {"smiles": "O=C(CN1CCN(c2nc[nH]c3nccc2-3)CC1)N1CCC(Cc2ccccc2)CC1", "note": "[Compound 26, 1-(4-benzylpiperidin-1-yl)-2-(4-{1H-pyrrolo[2,3-d]pyrimidin-4-yl}piperazin-1-yl)ethan-1-one]", "values": [{"measurement": "IC50", "setting": "[1]", "result": "> 1000", "unit": "nM"}, {"measurement": "IC50", "setting": "[2]", "result": "250 to 500", "unit": "nM"}, {"measurement": "JAK1/JAK2 selectivity", "setting": "[2]", "result": ">22"}]}, {"smiles": "NS(=O)(=O)c1cccc(NC(=O)CN2CCN(c3nc[nH]c4nccc3-4)CC2)c1", "note": "[Compound 27, 2-(4-{1H-pyrrolo[2,3-d]pyrimidin-4-yl}piperazin-1-yl)-N-(3-sulfamoylphenyl)acetamide]", "values": [{"measurement": "IC50", "setting": "[1]", "result": "> 1000", "unit": "nM"}, {"measurement": "IC50", "setting": "[2]", "result": "< 250", "unit": "nM"}, {"measurement": "JAK1/JAK2 selectivity", "setting": "[2]", "result": 14}]}, {"smiles": "O=C(CN1CCN(c2nc[nH]c3nccc2-3)CC1)N1CCN(C(=O)Nc2ccccc2)CC1", "note": "[Compound 28, N-phenyl-4-[2-(4-{1H-pyrrolo[2,3-d]pyrimidin-4-yl}piperazin-1-yl)acetyl]piperazine-1-carboxamide]", "values": [{"measurement": "IC50", "setting": "[1]", "result": "> 1000", "unit": "nM"}, {"measurement": "IC50", "setting": "[2]", "result": "250 to 500", "unit": "nM"}, {"measurement": "JAK1/JAK2 selectivity", "setting": "[2]", "result": 19}]}, {"smiles": "CN(C)S(=O)(=O)c1cccc(NC(=O)CN2CCN(c3nc[nH]c4nccc3-4)CC2)c1", "note": "[Compound 29, N-[3-(dimethylsulfamoyl)phenyl]-2-(4-{1H-pyrrolo[2,3-d]pyrimidin-4-yl}piperazin-1-yl)acetamide]", "values": [{"measurement": "IC50", "setting": "[1]", "result": "> 1000", "unit": "nM"}, {"measurement": "IC50", "setting": "[2]", "result": "500 to 1000", "unit": "nM"}, {"measurement": "JAK1/JAK2 selectivity", "setting": "[2]", "result": 11}]}, {"smiles": "O=C(CN1CCN(c2nc[nH]c3nccc2-3)CC1)Nc1cccc(S(=O)(=O)N2CCOCC2)c1", "note": "[Compound 30, N-[3-(morpholine-4-sulfonyl)phenyl]-2-(4-{1H-pyrrolo[2,3-d]pyrimidin-4-yl}piperazin-1-yl)acetamide]", "values": [{"measurement": "IC50", "setting": "[1]", "result": "> 1000", "unit": "nM"}, {"measurement": "IC50", "setting": "[2]", "result": "> 1000", "unit": "nM"}, {"measurement": "JAK1/JAK2 selectivity", "setting": "[2]", "result": 6}]}, {"smiles": "O=C(CN1CCN(c2nc[nH]c3nccc2-3)CC1)Nc1ccc(S(=O)(=O)N2CCCCC2)cc1", "note": "[Compound 31, N-[4-(piperidine-1-sulfonyl)phenyl]-2-(4-{1H-pyrrolo[2,3-d]pyrimidin-4-yl}piperazin-1-yl)acetamide]", "values": [{"measurement": "IC50", "setting": "[1]", "result": "> 1000", "unit": "nM"}, {"measurement": "IC50", "setting": "[2]", "result": "< 250", "unit": "nM"}, {"measurement": "JAK1/JAK2 selectivity", "setting": "[2]", "result": 4}]}, {"smiles": "O=C(CN1CCN(c2nc[nH]c3nccc2-3)CC1)Nc1cccc(S(=O)(=O)N2CCCC2)c1", "note": "[Compound 32, N-[3-(pyrrolidine-1-sulfonyl)phenyl]-2-(4-{1H-pyrrolo[2,3-d]pyrimidin-4-yl}piperazin-1-yl)acetamide]", "values": [{"measurement": "IC50", "setting": "[1]", "result": "> 1000", "unit": "nM"}, {"measurement": "IC50", "setting": "[2]", "result": "250 to 500", "unit": "nM"}, {"measurement": "JAK1/JAK2 selectivity", "setting": "[2]", "result": 23}]}, {"smiles": "O=C(CN1CCN(c2nc[nH]c3nccc2-3)CC1)Nc1ccc(/N=N/c2ccccc2)cc1", "note": "[Compound 33, N-[4-(2-phenyldiazen-1-yl)phenyl]-2-(4-{1H-pyrrolo[2,3-d]pyrimidin-4-yl}piperazin-1-yl)acetamide]", "values": [{"measurement": "IC50", "setting": "[1]", "result": "> 1000", "unit": "nM"}, {"measurement": "IC50", "setting": "[2]", "result": "< 250", "unit": "nM"}, {"measurement": "JAK1/JAK2 selectivity", "setting": "[2]", "result": ">100"}]}, {"smiles": "CN(C)S(=O)(=O)c1cc(NC(=O)CN2CCN(c3nc[nH]c4nccc3-4)CC2)ccc1Cl", "note": "[Compound 34, N-[4-chloro-3-(dimethylsulfamoyl)phenyl]-2-(4-{1H-pyrrolo[2,3-d]pyrimidin-4-yl}piperazin-1-yl)acetamide]", "values": [{"measurement": "IC50", "setting": "[1]", "result": "> 1000", "unit": "nM"}, {"measurement": "IC50", "setting": "[2]", "result": "250 to 500", "unit": "nM"}, {"measurement": "JAK1/JAK2 selectivity", "setting": "[2]", "result": 23}]}, {"smiles": "Cc1ccc(NC(=O)CN2CCN(c3nc[nH]c4nccc3-4)CC2)cc1S(=O)(=O)N(C)C", "note": "[Compound 35, N-[3-(dimethylsulfamoyl)-4-methylphenyl]-2-(4-{1H-pyrrolo[2,3-d]pyrimidin-4-yl}piperazin-1-yl)acetamide]", "values": [{"measurement": "IC50", "setting": "[1]", "result": "> 1000", "unit": "nM"}, {"measurement": "IC50", "setting": "[2]", "result": "500 to 1000", "unit": "nM"}, {"measurement": "JAK1/JAK2 selectivity", "setting": "[2]", "result": 11}]}, {"smiles": "CC(C(=O)Nc1cccc(S(=O)(=O)N(C)C)c1)N1CCN(c2nc[nH]c3nccc2-3)CC1", "note": "(stereo not shown) [Compound 36]", "values": [{"measurement": "IC50", "setting": "[1]", "result": "> 1000", "unit": "nM"}, {"measurement": "IC50", "setting": "[2]", "result": "> 1000", "unit": "nM"}, {"measurement": "JAK1/JAK2 selectivity", "setting": "[2]", "result": 9}]}, {"smiles": "CC(C)N(C)S(=O)(=O)c1ccc(NC(=O)CN2CCN(c3nc[nH]c4nccc3-4)CC2)cc1", "note": "[Compound 37, N-{4-[methyl(propan-2-yl)sulfamoyl]phenyl}-2-(4-{1H-pyrrolo[2,3-d]pyrimidin-4-yl}piperazin-1-yl)acetamide]", "values": [{"measurement": "IC50", "setting": "[1]", "result": "> 1000", "unit": "nM"}, {"measurement": "IC50", "setting": "[2]", "result": "250 to 500", "unit": "nM"}, {"measurement": "JAK1/JAK2 selectivity", "setting": "[2]", "result": 15}]}, {"smiles": "NS(=O)(=O)c1cccc(NC(=O)CCN2CCN(c3nc[nH]c4nccc3-4)CC2)c1", "note": "[Compound 38]", "values": [{"measurement": "IC50", "setting": "[1]", "result": "> 1000", "unit": "nM"}, {"measurement": "IC50", "setting": "[2]", "result": "500 to 1000", "unit": "nM"}, {"measurement": "JAK1/JAK2 selectivity", "setting": "[2]", "result": 6}]}, {"smiles": "O=C(CCN1CCN(c2nc[nH]c3nccc2-3)CC1)Nc1cccc(S(=O)(=O)N2CCCC2)c1", "note": "[Compound 39]", "values": [{"measurement": "IC50", "setting": "[1]", "result": "> 1000", "unit": "nM"}, {"measurement": "IC50", "setting": "[2]", "result": "500 to 1000", "unit": "nM"}, {"measurement": "JAK1/JAK2 selectivity", "setting": "[2]", "result": 1}]}, {"smiles": "CN(C)S(=O)(=O)c1ccc(NC(=O)CCN2CCN(c3nc[nH]c4nccc3-4)CC2)cc1", "note": "[Compound 40]", "values": [{"measurement": "IC50", "setting": "[1]", "result": "> 1000", "unit": "nM"}, {"measurement": "IC50", "setting": "[2]", "result": "250 to 500", "unit": "nM"}, {"measurement": "JAK1/JAK2 selectivity", "setting": "[2]", "result": 11}]}, {"smiles": "CN(C)S(=O)(=O)c1ccccc1CNC(=O)CN1CCN(c2nc[nH]c3nccc2-3)CC1", "note": "[Compound 41, N-{[2-(dimethylsulfamoyl)phenyl]methyl}-2-(4-{1H-pyrrolo[2,3-d]pyrimidin-4-yl}piperazin-1-yl)acetamide]", "values": [{"measurement": "IC50", "setting": "[1]", "result": "> 1000", "unit": "nM"}, {"measurement": "IC50", "setting": "[2]", "result": "500 to 1000", "unit": "nM"}, {"measurement": "JAK1/JAK2 selectivity", "setting": "[2]", "result": 10}]}]}
